Molecules are shown by their SMILES.

These results are taken from patent US6627646B2 (Sepracor Inc., priority 2001, dated 2003).

For data set [1] the following is noted: factor between polymorphs; cited from earlier work.
The nature of data set [2]: XRPD (Rietveld) polymorph determination of samples made by literature processes. It is filed as physicochemical. To be noted: samples generated following referenced literature procedures; validated XRPD method. The text has this: A Rietveld analysis was developed that allowed quantitative determination of Form B in Form A down to a detection limit at 5%. Upon analysis, it became apparent that the desired polymorph, in any reasonable degree of purity, could not be produced by the known procedures, and indeed, even a specific ratio of polymorphs was not consistently produced by the known procedures. As discussed above, such a situation is highly undesirable from both a medical and a regulatory standpoint.
All prior processes for producing norastemizole free base, described in art known to the applicants, were examined. The samples were generated following the referenced procedures and were tested using the validated XRPD method.

Take `CCCCCCCCCCCCCCCC(=O)OC[C@@H](NC(=O)C(Cl)Cl)[C@H](O)c1ccc([N+](=O)[O-])cc1` [Chloramphenicol-3-palmitate]: in data set [1], the “difference in bio-activity between form A and form B” value is listed as “eight”.

On to `Fc1ccc(Cn2c(NC3CCNCC3)nc3ccccc32)cc1` [H1632-4A], for which the “Polymorph Results, % Form B” value in data set [2] turned out to be 91%.

In the case of `Fc1ccc(Cn2c(NC3CCNCC3)nc3ccccc32)cc1` [H1632-5A], in data set [2], the “Polymorph Results, % Form B” value was determined as 90%. For `Fc1ccc(Cn2c(NC3CCNCC3)nc3ccccc32)cc1` [H1632-6A], in data set [2], the “Polymorph Results, % Form B” value turned out to be 100%. For `Fc1ccc(Cn2c(NC3CCNCC3)nc3ccccc32)cc1` [H1632-30A], in data set [2], the “Polymorph Results, % Form B” value is 100%. On the same count and under the same terms, under `Fc1ccc(Cn2c(NC3CCNCC3)nc3ccccc32)cc1` [R1632-7A] stands 86%.
